`CCc1cc(Br)cc(C(=O)Nc2ccc(F)cn2)n1`: the melting point is 124 °C.
As for `O=[N+]([O-])c1ccc(-c2ccc(-c3cn([C@H]4CN5CCC4CC5)nn3)s2)cn1`, the figure is 160 °C.
Next, `CN(CCc1ccccc1)CCc1ccc(Nc2ncc3c(n2)-c2ccccc2C(c2cccc(Br)c2)C3)cc1` (stereo not given): 80 to 82 °C.
As for `CCn1c(=N)c(-c2cccs2)cc2cnc(Nc3ccccc3)nc21`, the figure is 204 to 205 °C; as for `CCOC(=O)C(CO)C(C)c1cccnc1` (stereo not given), 128 to 131 °C; as for `Oc1cnc2cccc(Cl)c2n1`, above 250 °C.
Consider `Cc1oncc1C(=O)N1CCC[C@H](c2nc(-c3ccc[nH]3)no2)C1`, for which the melting point lay within 125 to 127 °C.
Next, `Cc1ccc(S(=O)(=O)N(Cc2ccc(C#N)cc2F)C2CCCC2)cc1`: 178 to 179 °C; `COc1cc2[nH]c(=O)c([N+](=O)[O-])c(C(F)(F)F)c2cc1OC`: 270 °C; `Cc1cc(-c2oncc2CCl)ccc1Cl`: 84 to 85 °C.
Next, `Nc1n[nH]cc1C(=O)NC/C=C\COc1cc(CN2CCCCC2)ccn1`: 172 to 174 °C.
As for `Cc1ccccc1CCCc1c(C)nc(N)nc1N`, the figure is 213 to 215 °C; as for `C#CCOc1cc(OCC#C)c2c(=O)cc(-c3ccc(OC)c(OCC#C)c3)oc2c1`, 196 °C; as for `NCCSc1ncccc1C(N)=O`, 131 to 133 °C.
Regarding `CC1(C)CC(=NO)c2cc(OCc3ccccc3)ccc2O1`, the melting point lay within 105 to 108 °C.
As for `CC1(C)NCC(c2ccccc2)=NO1`, the figure is 93 to 95 °C; as for `COc1cc(C(=O)COC(C)=O)ccc1O`, 115 to 117 °C.
Next, `COc1cc(-c2[nH]c(SC)nc2-c2ccc(F)cc2)ccn1`: 158 °C; `Clc1ccn2cc(Cl)nc2c1`: 153 to 154 °C.
In turn, `CCOC(=O)c1nn(-c2ccc(OC)cc2)c2c1CCN(c1ccc(I)cc1)C2=O` displayed a melting point of 173 to 175 °C.
In turn, `CNC(=O)CCC(=O)c1ccccc1` registered a melting point of 80 to 82 °C.
Regarding `O=Cc1ccc(Cc2ccccc2)cc1`, the melting point lay in the range of 142 to 144 °C.
As for `CCNc1cc(Oc2ccc(NC(=O)NC3CC3c3ccccc3)cc2)ncn1` (stereo not given), the figure is 205 to 206 °C; as for `CN(Cc1cc2c(=O)c(C(=O)NCc3ccc(Cl)cc3)cn(C)c2o1)CC(O)c1ccc(-c2ccccc2)o1` (stereo not given), 115 to 119 °C.
Next, `O=c1oc2c(c(OCCN3CCOCC3)c1-c1ccccc1)CCCC2`: 115 °C; `O=c1[nH]c2ccc(C3=NOC(CN4CCC(C(O)c5ccc(F)cc5)CC4)C3)cc2o1` (stereo not given): 186 to 191 °C; `Nc1c(Cl)c(Oc2ccccc2)nc(C(=O)O)c1Cl`: 158 to 160 °C.
Next, `Cc1ccc(-c2cccc(-c3nc(C(C)C)[nH]c3-c3cccc(C)n3)c2)cc1`: 76 to 79 °C; `Cc1cc(Cc2ccc(NS(C)(=O)=O)cc2F)n(C)c1C(=O)c1ccccc1`: 165 to 167 °C; `Nc1ccc(Nc2cccc(O)c2)cc1`: 146 to 149 °C.
The compound `COc1ccc2c(-c3cccc(F)c3F)noc2c1Cl` had a melting point of 184 to 189 °C.
Next, `O=c1n(-c2ccc(Cl)cc2Cl)nc2n1CCCC2`: 100 to 104 °C; `O=C(Nc1nccs1)/C(=C/C1CCCC1)c1ccc(Cl)c(Cl)c1`: 57 to 59 °C; `Cc1[nH]c(C(=O)N2CCC(C(=O)O)CC2)c(C)c1-c1nc2ccc(C(=O)c3ccccc3)cc2[nH]1`: 267 to 271 °C.
Next, `CCCCCCCCCCCCCCOc1ccc(C(=O)Cl)cc1Cl`: 90 °C; `Cc1ncncc1NC(=O)Nc1ccc(-n2nc(C(F)(F)F)cc2C2CC2)cc1`: 190 to 192 °C; `CCCc1c(OCCCCCCc2cccc(OCCCC(=O)O)c2CCC(=O)O)ccc2c1OCCC2=O`: 116 to 118 °C.
Next, `Cc1cn(COC(COCc2ccccc2)COCc2ccccc2)c(=O)[nH]c1=O`: 96 to 98 °C; `C=C(ON1C(=O)[C@@H](NC(=O)OC(C)(C)C)[C@@H]1C)C(=O)O`: 127 to 130 °C; `Cc1cc(-n2cncn2)cc(C=O)c1N`: 209 to 211 °C.
In turn, `CCNc1nc2ccccc2n2c(CC)nnc12` yielded a melting point of 235 to 238 °C.
In turn, `OCc1cc2cc(-c3ccc4ccc(Cl)cc4n3)ccc2o1` gave a melting point of 206 to 207 °C.
For the compound `C=C1[C@H](CO)[C@H](O)[C@H](O)[C@H]1OCc1ccccc1`, the melting point fell in the range of 122 to 124 °C.
For the compound `COc1ccc(CN(Cc2ccc(OC)cc2)c2nc(-c3ccccc3)c(-c3ccc(=O)n(C(C)C)n3)nc2C(N)=O)cc1`, the melting point was 120 to 122 °C.
Next, `Cc1ccc2oc(=O)c(-c3cc(O)c(O)c(C#N)c3)nc2c1`: 278 to 280 °C.
As for `COc1ccc2c(c1)CCC(CC(=O)N1CCCCC1)C2` (stereo not given), the figure is 59 to 61 °C; as for `COc1ccc(OC(CCCN2CC3CCC(C2)N3C(=O)OC(C)(C)C)c2ccc(C#N)cc2)cc1OC` (stereo not given), 38 to 41 °C; as for `CCCCNC(=O)Nc1ccccc1C(=O)NCC1CCN(C(c2ccccc2)c2ccccc2)CC1`, 197 to 198 °C.
`Cc1csc2ccc3[nH]c4c(c3c12)CN(CCCN(C)C)CC4`: the melting point was found to be 184 °C.
As for `Cc1ccc(C)c(NC(=O)NCC2(c3ccccc3)CCCCC2)c1`, the figure is 202 to 203 °C; as for `CC(C)(C)OC(=O)NCC1CCc2cc(O)ccc2C1` (stereo not given), 114 °C; as for `O=C(O)C1=CSC2C(=Cc3cc4c(s3)-c3cccnc3SC4)C(=O)N12` (stereo not given), 113 to 115 °C.
`CCOC(=S)Nc1cccc(Cl)c1` yielded a melting point of 78 to 79 °C.
Next, `CCS(=O)c1c(C#N)nn(-c2c(Cl)cc(C(F)(F)F)cc2Cl)c1N` (stereo not given): 173 to 174 °C.
`CCCCOCCOc1ccc(-c2ccc3c(c2)C=C(C(=O)Nc2ccc(S(=O)CCc4nncn4CCC)cc2)CCN3CCC)cc1` (stereo not given): the melting point is 93 to 101 °C.
Next, `CCCCCCCCCCCCCCC(NC(C)=O)(C(=O)OCC)C(=O)OCC`: 58.5 to 60.5 °C; `COc1ccc2c(c1)NC1(CCN(Cc3ccccc3)CC1)c1cccn1-2`: 123 to 124 °C.
The compound `CCc1cc(C(C)=O)c(O)cc1OCCCCCNC(C)=O` displayed a melting point of 115 to 116 °C.
Next, `COC(=O)C(C)(SC)c1ccc(N2C(=O)c3ccccc3C2=O)cc1` (stereo not given): 142 to 145 °C; `CC=C(c1ccc(OC)cc1)c1ccc(OC)cc1`: 99 to 100 °C; `O=C(Nc1cccc(C(F)(F)F)c1)Nc1ccc2c(c1)OC(F)(F)O2`: 187 to 191 °C.
As for `NS(=O)(=O)c1ccc(-c2ccccc2-c2ccc(Cl)cc2)cc1`, the figure is 206 to 207 °C.
Next, `Cc1nn(C)cc1C(=O)Nc1cc(Oc2ccc3nc(NC(=O)C4CC4)cn3n2)ccc1F`: 205 °C; `Cc1cc(C2=NOC(c3cc(Cl)cc(Cl)c3)(C(F)(F)F)C2)ccc1C(=O)N(C)c1cncnc1` (stereo not given): 197 to 200 °C.
As to `CC(C)Oc1c(C(N)=O)sc2ccc(N)cc12`, the melting point fell in the range of 150 to 151 °C.

The record behind these values is a melting point compilation (Tetko et al.; mined from patent text by program, amines drawn as free bases though some values may be those of a salt).
